Test results from paper PMC12744908 (Journal of medicinal chemistry, 2025).
Blank lines part the entries; values can stand above or below the compound they belong to.

Key:
[1] = HepG2 cytotoxicity assay; format: cell-based; conditions: human
[2] = Murine microsomal stability; format: in vitro ADME
[3] = tested on: Plasmodium yoelii; test: In vivo efficacy; set-up: species or system Plasmodium yoelii (female CF1 mice); conditions: oral once daily for 4 days, parasitemia Day 5
[4] = tested on: Plasmodium yoelii; test: In vivo parasite suppression at fixed dose, modified 4-day Peters test; set-up: species or system Plasmodium yoelii (female CF1 mice); conditions: for inhibition in vivo at 2.5 mg/kg: Plasmodium yoelii, in Mus musculus, po, 120 h, read-out: % Py Suppression; for % Py Suppression: 2.5 mg/kg/d oral, Days 1-4, parasitemia Day 5 vs vehicle control, n = 4
[5] = tested on: Plasmodium falciparum, Strain D6; test: In vitro antiplasmodial activity, fluorescence-based SYBR Green assay, strain D6; format: cell-based; conditions: D6, 72 h, read-out: IC50 v D6 ± SD
[6] = tested on: Plasmodium yoelii; test: Single dose cure; format: in vivo, Plasmodium yoelii (female CF1 mice); conditions: single oral dose Day 1, 0% parasitemia until Day 30
[7] = mouse, pooled liver microsomes, pH 7.4

SMILES: Clc1ccc2c(Nc3ccc(N4CCNCC4)cc3)ccnc2c1 [Compound 38, 7-chloro-N-(4-(piperazin-1-yl)phenyl)quinolin-4-amine]
CC50 at 24 h ([1]; HepG2 cells): 54 µM

SMILES: FC(F)(F)Oc1ccc(-c2cnc3cc(Cl)ccc3c2Nc2ccc(N3CCOCC3)cc2)cc1 [Compound 8, 7-chloro-N-(4-morpholinophenyl)-3-(4-(trifluoromethoxy)phenyl)quinolin-4-amine]
CC50 at 24 h ([1]; HepG2 cells): > 200 µM

CLint scaled at 1 μM [2, 7]: 497 mL/min/kg
SMILES: CCN1CCC(c2ccc(Nc3ccnc4cc(Cl)ccc34)cc2)CC1 [Compound 40, 7-chloro-N-(4-(1-ethylpiperidin-4-yl)phenyl)quinolin-4-amine]
ED50 v Py [3]: 1.8 mg/kg/day
ED90 v Py [3]: 13 mg/kg/day
inhibition in vivo at 2.5 mg/kg [4]: 13%

SMILES: Clc1ccc2c(Nc3ccc(N4CCCCC4)cc3)ccnc2c1 [Compound 34, 7-chloro-N-(4-(piperidin-1-yl)phenyl)quinolin-4-amine]
CC50 at 24 h ([1]; HepG2 cells): > 200 µM

SMILES: FC(F)(F)Oc1ccc(-c2cnc3cc(Cl)ccc3c2Nc2ccc(C3CN(Cc4ccccc4)CCO3)cc2)cc1 (centres unmarked) [Compound 16, N-(4-(4-benzylmorpholin-2-yl)phenyl)-7-chloro-3-(4-(trifluoromethoxy)phenyl)quinolin-4-amine]
CC50 at 24 h ([1]; HepG2 cells): > 200 µM

CLint scaled at 1 μM [2, 7]: 843 mL/min/kg
half-life at 1 μM [2, 7]: 6.47 min
SMILES: CC(C)CN1CCN(c2ccc(Nc3ccnc4cc(Cl)ccc34)cc2)CC1 [Compound 45, 7-chloro-N-(4-(4-isobutylpiperazin-1-yl)phenyl)quinolin-4-amine]
CC50 at 24 h ([1]; HepG2 cells): > 200 µM
% Py Suppression [4]: 30%

SMILES: CCN1CCOCC1c1ccc(Nc2c(-c3ccc(OC(F)(F)F)cc3)cnc3cc(Cl)ccc23)cc1 (centres unmarked) [Compound 14, 7-chloro-N-(4-(4-ethylmorpholin-3-yl)phenyl)-3-(4-(trifluoromethoxy)phenyl)quinolin-4-amine]
CC50 at 24 h ([1]; HepG2 cells): > 200 µM

SMILES: CCN(CC)CCCC(C)Nc1ccnc2cc(Cl)ccc12 (centres unmarked) [Compound 1, chloroquine]
IC50 [5]: 0.0096 ± 0.002 µM

SMILES: CC(C)(C)OC(=O)N1CCN(c2ccc(Nc3ccnc4cc(Cl)ccc34)cc2)CC1 [Compound 36, tert-butyl 4-(4-((7-chloroquinolin-4-yl)amino)phenyl)piperazine-1-carboxylate]
CC50 at 24 h ([1]; HepG2 cells): > 200 µM

SMILES: Clc1ccc2c(Nc3ccc(C4COCCN4Cc4ccccc4)cc3)ccnc2c1 (centres unmarked) [Compound 12, N-(4-(4-benzylmorpholin-3-yl)phenyl)-7-chloroquinolin-4-amine]
CC50 at 24 h ([1]; HepG2 cells): > 200 µM

CLint scaled at 1 μM [2, 7]: 78 mL/min/kg
SMILES: CCCN1CCC(c2ccc(Nc3ccnc4cc(Cl)ccc34)cc2)CC1 [Compound 41, 7-chloro-N-(4-(1-propylpiperidin-4-yl)phenyl)quinolin-4-amine]
CC50 at 24 h ([1]; HepG2 cells): > 200 µM
% Py Suppression [4]: 39%
inhibition in vivo at 2.5 mg/kg [4]: 39%

SMILES: CCN1CCOCC1c1ccc(Nc2ccnc3cc(Cl)ccc23)cc1 (centres unmarked) [Compound 13, 7-chloro-N-(4-(4-ethylmorpholin-3-yl)phenyl)quinolin-4-amine]
CC50 at 24 h ([1]; HepG2 cells): > 200 µM

CLint scaled at 1 μM [2, 7]: 3780 mL/min/kg
SMILES: CN1CCN(c2ccc(Nc3ccnc4cc(Cl)ccc34)cc2)CC1 [Compound 21, 7-chloro-N-(4-(4-methylpiperazin-1-yl)phenyl)quinolin-4-amine]

CLint scaled at 1 μM [2, 7]: 98.3 mL/min/kg
SMILES: CCC(C)N1CCC(c2ccc(Nc3ccnc4cc(Cl)ccc34)cc2)CC1 (centres unmarked) [Compound 44, N-(4-(1-(sec-butyl)piperidin-4-yl)phenyl)-7-chloroquinolin-4-amine]
CC50 at 24 h ([1]; HepG2 cells): > 200 µM
inhibition in vivo at 2.5 mg/kg [4]: 71%

SMILES: Clc1ccc2c(Nc3ccc(N4CCN(C5CC5)CC4)cc3)ccnc2c1 [Compound 33, 7-chloro-N-(4-(4-cyclopropylpiperazin-1-yl)phenyl)quinolin-4-amine]
CC50 at 24 h ([1]; HepG2 cells): > 200 µM

SMILES: Clc1ccc2c(Nc3ccc(C4CN(Cc5ccccc5)CCO4)cc3)ccnc2c1 (centres unmarked) [Compound 15, N-(4-(4-benzylmorpholin-2-yl)phenyl)-7-chloroquinolin-4-amine]
CC50 at 24 h ([1]; HepG2 cells): 38 µM

CLint scaled at 1 μM [2, 7]: 124 mL/min/kg
SMILES: CC(C)N1CCC(c2ccc(Nc3ccnc4cc(Cl)ccc34)cc2)CC1 [Compound 35, 7-chloro-N-(4-(1-isopropylpiperidin-4-yl)phenyl)quinolin-4-amine]
CC50 at 24 h ([1]; HepG2 cells): > 200 µM
ED50 v Py [3]: 1.1 mg/kg/day
ED90 v Py [3]: 4.1 mg/kg/day
inhibition in vivo at 2.5 mg/kg [4]: 48%

CLint scaled at 1 μM [2, 7]: 392 mL/min/kg
SMILES: Clc1ccc2c(Nc3ccc(N4CCN(Cc5ccccc5)CC4)cc3)ccnc2c1 [Compound 17, N-(4-(4-benzylpiperazin-1-yl)phenyl)-7-chloroquinolin-4-amine]
CC50 at 24 h ([1]; HepG2 cells): > 200 µM
inhibition in vivo at 2.5 mg/kg [4]: 0%

SMILES: CCN1CCN(c2ccc(Nc3ccnc4cc(C(F)(F)F)ccc34)cc2)CC1 [Compound 26, N-(4-(4-ethylpiperazin-1-yl)phenyl)-7-(trifluoromethyl)quinolin-4-amine]
CC50 at 24 h ([1]; HepG2 cells): > 200 µM

CLint scaled at 1 μM [2, 7]: 130 mL/min/kg
SMILES: CCCCN1CCC(c2ccc(Nc3ccnc4cc(Cl)ccc34)cc2)CC1 [Compound 42, N-(4-(1-butylpiperidin-4-yl)phenyl)-7-chloroquinolin-4-amine]
CC50 at 24 h ([1]; HepG2 cells): > 200 µM
inhibition in vivo at 2.5 mg/kg [4]: 53%

SMILES: Clc1ccc2c(Nc3ccc(N4CCOCC4)cc3)ccnc2c1 [Compound 7, 7-chloro-N-(4-morpholinophenyl)quinolin-4-amine]
CC50 at 24 h ([1]; HepG2 cells): > 200 µM

t1/2 (microsomal stability) ([2]; pooled murine liver microsomes, 1 μM, 0.5 mg/mL protein, 37 °C, 1 h): ∞
SMILES: CC(C)(C)N1CCN(c2ccc(Nc3ccnc4cc(Cl)ccc34)cc2)CC1 [Compound 31, N-(4-(4-(tert-butyl)piperazin-1-yl)phenyl)-7-chloroquinolin-4-amine]
CC50 at 24 h ([1]; HepG2 cells): > 200 µM
compound metabolized over the course of the microsomal experiment ([2]; pooled murine liver microsomes, 1 h): no detectable amount of compound was metabolized
ED50 v Py [3]: 4.0 mg/kg/day
ED90 v Py [3]: 7.6 mg/kg/day
inhibition in vivo at 2.5 mg/kg [4]: 30%

SMILES: FC(F)(F)c1ccc(N2CCN(c3ccc(Nc4ccnc5cc(Cl)ccc45)cc3)CC2)cc1 [Compound 32, 7-chloro-N-(4-(4-(4-(trifluoromethyl)phenyl)piperazin-1-yl)phenyl)quinolin-4-amine]
CC50 at 24 h ([1]; HepG2 cells): > 200 µM

CLint scaled at 1 μM [2, 7]: 2930 mL/min/kg
SMILES: CCN1CCN(c2ccc(Nc3ccnc4cc(Cl)ccc34)cc2)CC1 [Compound 20, 7-chloro-N-(4-(4-ethylpiperazin-1-yl)phenyl)quinolin-4-amine]
CC50 at 24 h ([1]; HepG2 cells): > 200 µM
ED50 v Py [3]: 1.5 mg/kg/day
ED90 v Py [3]: 8.4 mg/kg/day
inhibition in vivo at 2.5 mg/kg [4]: 60%

SMILES: CCN1CCN(c2ccc(Nc3ccnc4cc(Cl)c(Cl)cc34)cc2)CC1 [Compound 24, 6,7-dichloro-N-(4-(4-ethylpiperazin-1-yl)phenyl)quinolin-4-amine]
CC50 at 24 h ([1]; HepG2 cells): > 200 µM

SMILES: CC(C)CN1CCC(c2ccc(Nc3ccnc4cc(Cl)ccc34)cc2)CC1 [Compound 43, 7-chloro-N-(4-(1-isobutylpiperidin-4-yl)phenyl)quinolin-4-amine]
CC50 at 24 h [1]: > 200 µM
SDC (single dose cure) [6]: 50 mg/kg
% Py Suppression [4]: 91%
inhibition in vivo at 2.5 mg/kg [4]: 91%

SMILES: Clc1ccc2c(Nc3ccc(C4CCNCC4)cc3)ccnc2c1 [Compound 39, 7-chloro-N-(4-(piperidin-4-yl)phenyl)quinolin-4-amine]
CC50 at 24 h ([1]; HepG2 cells): 58 µM

SMILES: CCN1CCN(c2ccc(Nc3ccnc4cc(Br)ccc34)cc2)CC1 [Compound 25, 7-bromo-N-(4-(4-ethylpiperazin-1-yl)phenyl)quinolin-4-amine]
CC50 at 24 h ([1]; HepG2 cells): 48 µM
